The text below walks through data of PubChem BioAssay (NCI).

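Five compound concentrations were applied to cells in 96-well plates for 48 hours; endpoints were derived by simple linear interpolation of the resulting dose-response curve. TGI: concentration producing complete growth inhibition.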

Common to all, as to test: NCI-60 cell line screen, 48 h
Assay [1] concerns OVCAR-4 ovarian.
In assay [2] the test system is 786-0 renal.
The subject of assay [3] is HCT-116 colon.
The test system of assay [4] is NCI-H460 lung.
For assay [5], the system named is OVCAR-3 ovarian.
The subject of assay [6] is U251 CNS.
In assay [7] the test system is SR leukemia.
Assay [8] relates to COLO 205 colon.
The subject of assay [9] is SK-OV-3 ovarian.
In assay [10] the test system is CAKI-1 renal.
Assay [11] deals with HOP-92 NSCLC.
Assay [12] deals with MALME-3M melanoma.
In assay [13] the test system is MOLT-4 leukemia.
The test system of assay [14] is A498 renal.
The test system of assay [15] is SF-539 CNS.
Assay [16] has as its system MDA-N.

For the compound `CCCCc1ccc(Nc2nc(SC)c3[nH]cnc3n2)cc1`, the TGI in assay [1] was above 100 µM; in assay [2] it was above 100 µM; in assay [3], above 100 µM; in assay [4], above 100 µM; in assay [5], above 93.5 µM; in [6], above 100 µM. Besides, the TGI is 9.69 µM in assay [7]; above 100 µM in [8]; above 100 µM in assay [9]; above 100 µM in [10]; above 100 µM in [11]; above 100 µM in assay [12]. For the same compound, the TGI is above 100 µM in [13], above 78.5 µM in [14] and above 100 µM in assay [15].
On to `CCN(CC)/C(Sc1ccccc1)=C(\C(Cl)=C(Cl)Cl)[N+](=O)[O-]`, for which the TGI in assay [16] was 40.2 µM; in [1], above 100 µM; in [2], 37.5 µM; in assay [3], 32.8 µM; in [4], 50.3 µM; in assay [5], 32.7 µM. In addition, the TGI in [8] was 31.5 µM; in [9], 73.1 µM; in assay [10] it was 29.2 µM; in assay [11] it was 36.4 µM; in [12], 39.9 µM; in [13], 31.3 µM. The TGI in [14] is 36.3 µM; in assay [15], 33 µM.
Take `CCOP(=O)(OCC)C(C)(CC)N/C(=N/C(NC(C)=O)(C(F)(F)F)C(F)(F)F)NC1=NC(C(F)(F)F)(C(F)(F)F)N=C(C(F)(F)F)O1` (stereo not given): the TGI in assay [16] was above 100 µM; in assay [1], 84.2 µM; in [2], above 100 µM; in assay [3], above 100 µM; in assay [4], above 100 µM; in assay [5] it was above 100 µM. The TGI in [6] was above 100 µM; in assay [8], 29.8 µM; in assay [9], above 100 µM; in assay [10], above 100 µM; in [11] it was 63.9 µM; in assay [12], 58.2 µM. The TGI in assay [13] was 45.3 µM; in assay [14], above 100 µM; in [15], above 100 µM.
`Cc1cc2c(cc1Cl)S(=O)(=O)OC(c1ccc([N+](=O)[O-])cc1)=N2`: the TGI in assay [1], in [2], in assay [3], in assay [4], in assay [5] and in assay [6] was above 100 µM in each case. Moreover, the TGI in assay [7], in assay [8], in assay [9], in assay [10], in [11] and in [12] was above 100 µM each time. In addition, the TGI in assay [13], in [14] and in assay [15] was above 100 µM throughout.
For the compound `COc1cc2c(cc1OCCCCN1C(=O)c3cccc4cccc(c34)C1=O)N=C[C@@H]1CCCN1C2=O`, the TGI in [1] was 18.3 µM; in assay [2], 9.73 µM; in [3], 14 µM; in assay [4], 14.4 µM; in assay [5], 10.4 µM; in assay [6] it was above 33.9 µM. Also, the TGI in [7] was above 100 µM; in assay [8], 8.21 µM; in [9] it was above 74 µM; in assay [10] it was 10.1 µM; in assay [11], above 45.8 µM; in assay [12], 16.1 µM. Also, the figures for the TGI in assay [13], in assay [14] and in assay [15] were above 100 µM, 13.9 µM and 7.1 µM, respectively.
Regarding `COC(=O)c1sc(=S)sc1SCc1ccc(CSc2sc(=S)sc2C(=O)OC)cc1`, the TGI in [16], in assay [1], in [2], in assay [3], in assay [4] and in assay [5] was above 100 µM throughout. In addition, the TGI in assay [6], in assay [8], in assay [9], in [10], in assay [11] and in [12] was above 100 µM in each case. Besides, the TGI in assay [13] and in assay [14] was above 100 µM in each case.
Consider `CC(C)CC(NC(=O)OC(C)(C)C)C(=O)Nc1ccc(Nc2nc(F)nc(-c3c4ccccc4c4n3CCS4)n2)cc1` (stereo not given), for which the TGI turned out to be 34.8 µM in [2]; 46 µM in assay [3]; 36.5 µM in [4]; 36.7 µM in assay [5]; 33.3 µM in assay [6]; 34.7 µM in [7]. In addition, the TGI in assay [8] was found to be 33.3 µM; in [9], 32.9 µM; in [10], 33.1 µM; in assay [11], 34.4 µM; in [12], 38.9 µM; in assay [13], 39 µM. Also, the figures for the TGI in assay [14] and in [15] were 45.8 µM and 37.7 µM, respectively.
For the compound `O=C1NCc2ccccc2S(=O)(=O)n2cccc21`, the TGI in [16], in assay [1], in assay [2], in assay [3], in assay [4] and in [5] was above 100 µM each time. Moreover, the TGI in assay [6], in [7], in [8], in assay [9], in [10] and in assay [12] was above 100 µM each time. The TGI in [13] and in assay [15] was above 100 µM throughout.
Take `COc1ccc(N=Cc2ccc(N(CCC#N)S(=O)(=O)c3ccccc3)cc2)cc1`: the TGI in assay [1], in assay [2], in [3], in assay [4], in [5] and in assay [6] was above 100 µM in each case. Further, the TGI in assay [7], in assay [8], in assay [9], in [10], in [11] and in assay [12] was above 100 µM in each case. In addition, the TGI in assay [13], in assay [14] and in assay [15] was above 100 µM each time.
As to `CC(C)=CCC/C(=C/CC/C(=C\CCc1ccoc1)C(=O)O)C(=O)O`, the TGI in assay [16], in assay [1], in assay [2], in [3], in assay [5] and in assay [6] was above 100 µM each time. Also, the TGI in [8], in assay [9], in [10], in [11], in [12] and in [13] was above 100 µM each time. The TGI in assay [14] and in [15] was above 100 µM throughout.
Consider `CCCCCCCCCCCCCCCCOCC(CC(F)(F)P(=O)(OCC)OCC)OC(C)=O` (stereo not given), for which the TGI was determined as 31.6 µM in assay [16]; 29.3 µM in [1]; 23 µM in assay [2]; 17 µM in [3]; 26.3 µM in assay [4]; 31.4 µM in assay [5]. The TGI was 13.7 µM in assay [6]; 32.5 µM in assay [8]; 35 µM in assay [9]; 30.3 µM in assay [10]; 23.1 µM in [11]; 25.7 µM in assay [12]. Moreover, the results for the TGI in [13] and in [14] were above 100 µM and 25.8 µM, respectively.
Regarding `CC(=O)O[C@H]1[C@@H]2OC(=O)[C@@](O)(CC3CCCO3)[C@@H]2CC(=O)[C@](C)(O)CC/C=C(\C)CCC[C@@H]1C` (stereo not given in full), the TGI in [16] was 49.4 µM; in assay [1], above 100 µM; in assay [2] it was above 100 µM; in assay [4], above 100 µM; in [5], above 100 µM; in assay [6] it was above 100 µM. Besides, the TGI in assay [8] is 34.5 µM; in assay [10], 44.5 µM; in assay [11] it was 87.7 µM; in assay [12], above 100 µM; in assay [14], above 100 µM; in [15] it was 36.7 µM.
As for `CN(C)C(=S)/N=c1\ssc(=S)n1Cc1cccnc1`, the TGI is above 100 µM in assay [1]; above 100 µM in assay [2]; above 100 µM in [3]; above 95.7 µM in assay [4]; 9.47 µM in assay [5]; above 94.9 µM in [6]. For the same compound, the TGI in assay [7] was above 100 µM; in [8], 32.1 µM; in assay [9] it was above 81.1 µM; in assay [10] it was above 100 µM; in [11], above 100 µM; in assay [12], above 100 µM. The TGI in [13] is 98.5 µM; in assay [14], above 100 µM; in [15] it was above 100 µM.
On to `Cc1ccc(NC2=CC(=O)C(NO)c3ccccc32)cc1` (stereo not given), for which the TGI in assay [16] is 6.75 µM; in assay [1], 9.71 µM; in [2] it was 17.4 µM; in [3] it was 8.77 µM; in assay [4] it was 13.3 µM; in assay [5] it was 5.57 µM. Also, the TGI in [6] came to 11.9 µM; in assay [8] it was 8.72 µM; in assay [9], 46.6 µM; in [10], 6.73 µM; in assay [11], 8.25 µM; in assay [13] it was 6.23 µM. Also, the TGI came out at 33.4 µM in assay [14] and 8.8 µM in [15].
`N#CC(=C1CCN(CCCC(=O)c2ccc(F)cc2)CC1)c1ccccc1`: the TGI in [1], in [2], in assay [3], in [4], in assay [6] and in assay [7] was above 100 µM in each case. Also, the TGI in assay [8], in assay [9], in [10], in [11], in assay [12] and in assay [13] was above 100 µM in each case. Besides, the TGI in assay [14] and in [15] was above 100 µM each time.
For the compound `Cc1ccc([N+](=O)[O-])cc1NC(=O)/C(=N/NC(=S)NN)C1SC(=S)NC1=O` (stereo not given), the TGI in [1], in [2], in [3], in assay [4], in assay [6] and in [7] was above 100 µM throughout. Further, the TGI in assay [8], in [9], in assay [10], in [11], in [12] and in [13] was above 100 µM in each case. The TGI in assay [14] and in assay [15] was above 100 µM each time.
As to `N#C/C(c1nc2ccccc2[nH]1)=c1\s/c(=C/c2ccc(Cl)cc2)c(=O)n1-c1ccccc1`, the TGI in assay [1], in assay [2], in assay [3], in assay [4], in [5] and in assay [6] was above 100 µM each time. Also, the TGI in assay [7], in [8], in assay [9], in [10], in assay [11] and in assay [12] was above 100 µM in each case. For the same compound, the TGI in assay [13], in assay [14] and in assay [15] was above 100 µM in each case.
With `O=S(Nc1ccccc1)c1cccc(Cl)c1` (stereo not given), the TGI in assay [16], in [2], in assay [3], in assay [4], in [5] and in assay [6] was above 100 µM each time. For the same compound, the TGI in assay [7] was above 100 µM; in assay [8], above 100 µM; in assay [10], above 100 µM; in assay [12] it was above 100 µM; in assay [13], above 100 µM; in assay [15], 77.6 µM.
With `CC(=O)OCC1OC(OC2CC3C(C)(C)C(OC(C)=O)CC[C@]3(C)C3CCC45CC4(CCC5[C@@H](C)C[C@H](O)C(O)C(C)(C)O)[C@]23C)C(O)C(O)C1O` (stereo not given in full), the TGI in [16], in assay [1], in [2], in assay [3], in assay [4] and in assay [5] was above 10 µM throughout. The TGI in assay [6], in assay [8], in [9], in assay [10], in assay [11] and in [12] was above 10 µM each time. The TGI in assay [13], in assay [14] and in [15] was above 10 µM each time.
